{
  "source": "patent US4343808A",
  "about": "“Method of inhibiting sickling of sickle erythrocytes” (The Dow Chemical Company, priority 1980, dated 1982)",
  "key": {"Hb-S": {"target": "Hb-S (Homo sapiens, UniProt P68871+P69905, E7V)", "experiment": "Oxygen-Affinity Assay (whole Hb-S blood)", "type": "cell-based", "settings": "37° C.", "description": "The compounds described herein were tested in an \"Oxygen-Affinity Assay\" to measure the ability of the compound to influence the Hb-S oxygen affinity. There is a relationship between oxygen binding and Hb-S gelation and thus a measure of oxygen affinity is an index of Hb-S aggregation within the red blood cell. Hemoglobin S polymers decrease the overall oxygen affinity. Thus a return to normal of Hb-S oxygen affinity is a measure of decreased gelation.\nFor measurements of oxygen equilibria whole Hb-S blood was equilibrated in a tonometer at 37° C. and measurements were made in the presence of a 10 millimolar (mM) concentration of the test compound. Some of the compounds were also tested at a 5 mM concentration. The whole blood pH, oxygen tension, and blood PO2 were measured.\nThe percentage of oxygen saturation was plotted against the partial pressure of oxygen (mm Hg). The P50 value (oxygen tension at 50% saturation) was determined for each control and treated whole blood sample and the difference (ΔP50) between the control and treated whole blood sample noted. As used herein, a negative ΔP50 represents a change toward a normal Hb-S oxygen affinity and thus is a measure of the test compound's ability to inhibit the sickling of sickle erythrocytes."}, "[1]": {"system": "sickle erythrocytes (intact sickle cells)", "experiment": "Blockade Erythrocyte Morphology, deoxygenation induced sickling", "type": "cell-based, human", "description": "The compound 2-((4-cyanophenoxy)methyl)-2-imidazoline p-toluenesulfonate (Example 2) and 2-((3-cyanophenoxy)methyl)-2-imidazoline p-toluenesulfonate (Example 4) were tested for anti-sickling activity using a suspension of intact sickle cells as follows:\nBlood collected from individuals with homozygous sickle cell disease, as well as normal blood, was anticoagulated with ethylenediaminetetraacetic acid (EDTA) and refrigerated until used. To portions of the blood samples were added appropriate volumes of a solution of the compound to be tested so that final concentrations of 0.0125 molar (M), 0.025 M, 0.05 M or 0.1 M were obtained, and the mixtures were incubated at 37° C. for 30 minutes. The test compounds were dissolved in saline. Appropriate volumes of saline were added to the control samples. Urea in invert sugar (UIS) at 0.05 M to 1.5 M concentrations was used as an agent capable of transforming sickled cells into normal forms and was therefore used as a positive control.\nAnoxic sickling (deoxygenation) was induced by exposing sickle blood to a hydrated 95% nitrogen, 5% carbon dioxide atmosphere for 60 minutes.\nAfter the sickling stimulus, slides were prepared. A volume of 0.2 ml of sickled cells were fixed in 1.0 ml of 3.2% glutaraldehyde in 0.1 M cacodylic buffer. Wet slides were prepared and sealed.\nThe slides were scored for normal cells (Typ.), atypical cells (Atyp.) and sickled cells (Sickle) on the basis of counting 300 cells per slide."}, "[2]": {"target": "T1, deoxyhemoglobin S (Deoxy Hb-S) (Homo sapiens, UniProt P68871+P69905, E7V)", "T1 construct": "native tetramer alpha2 betaS2", "experiment": "Solubility of deoxyhemoglobin S (hemoglobin gelation)", "type": "biochemical", "settings": "10 mM", "description": "The compound 2-((3-cyanophenoxy)methyl)-2-imidazoline p-toluenesulfonate was tested to determine its ability to inhibit sickle erythrocyte hemoglobin gelation as follows:\nThe solubility of deoxyhemoglobin S (Deoxy Hb-S) was determined utilizing substantially the same procedure described by Behe, M. J., Englander, S. W., Biochemistry 18: 4196-4201 (1979). Assays were done to determine the equilibrium solubility of Hb-S in the presence of inhibitor (i.e., test compound). […] Test mixtures were placed in a 4 centimeter (cm) length of thin quartz tubing sealed at one end, and then incubated at 37° C. for two hours to achieve gelation, and then re-equilibrated in a water bath (20° C.) for 20 minutes. The quartz tubing containing the test mixture was then placed in a glycerol filled centrifuge tube (topped by a rubber ring to center the quartz tubing) and centrifuged for two hours at 140,000 times gravity. […] The concentration of the hemoglobin in the supernatant was determined by measuring the absorbance at 540 nanometers (nm) after a 300-fold dilution with normally oxygenated buffer.\nThe Relative Solubility is a measure of the ability of the test compound to increase the solubility of deoxyhemoglobin S and is readily determined by comparing the solubility of the treated (i.e., test compound present) sample versus the control (i.e., test compound absent) sample."}, "[3]": {"settings": "deoxygenation, 0.0125 M, vs control"}, "[4]": {"settings": "deoxygenation, 0.025 M, vs control"}, "[5]": {"settings": "deoxygenation, 0.05 M, vs control"}},
  "data": [
    {"smiles": "Cl.FC(F)(F)c1cccc(NCC2=NCCN2)c1", "note": "[Example 6, 2-((3-Trifluoromethylanilino)methyl)-2-imidazoline Hydrochloride]", "values": [
      {"measurement": "Δ P50 (oxygen tension at 50% saturation, difference control vs treated)", "setting": "Hb-S; 10 mM", "value": -4.3, "unit": "mm Hg"}
    ]},
    {"smiles": "Cl.c1ccc(OCC2=NCCN2)cc1", "note": "[Example 8, 2-(Phenoxymethyl)-2-imidazoline Hydrochloride]", "values": [
      {"measurement": "Δ P50 (oxygen tension at 50% saturation, difference control vs treated)", "setting": "Hb-S; 10 mM", "value": -5.0, "unit": "mm Hg"}
    ]},
    {"smiles": "Cl.FC(F)(F)c1cccc(OCC2=NCCN2)c1", "note": "[Example 7, 2-(3-Trifluoromethylphenoxy)methyl-2-imidazoline Hydrochloride]", "values": [
      {"measurement": "Δ P50 (oxygen tension at 50% saturation, difference control vs treated)", "setting": "Hb-S; 10 mM", "value": -3.0, "unit": "mm Hg"}
    ]},
    {"smiles": "CS(=O)(=O)c1ccc(OCC2=NCCN2)cc1.Cl", "note": "[Example 3, 2-((4-(Methylsulfonyl)phenoxy)methyl)-2-imidazoline Hydrochloride]", "values": [
      {"measurement": "Δ P50 (oxygen tension at 50% saturation, difference control vs treated)", "setting": "Hb-S; 10 mM", "value": -7.0, "unit": "mm Hg"}
    ]},
    {"smiles": "O=[N+]([O-])c1cccc(OCC2=NCCN2)c1", "note": "[Example 1]", "values": [
      {"measurement": "Δ P50 (oxygen tension at 50% saturation, difference control vs treated)", "setting": "Hb-S; 5 mM", "value": -2, "unit": "mm Hg"},
      {"measurement": "Δ P50 (oxygen tension at 50% saturation, difference control vs treated)", "setting": "Hb-S; 10 mM", "value": -10.6, "unit": "mm Hg"}
    ]},
    {"smiles": "CSc1ccc(OCC2=NCCN2)cc1C", "note": "[Example 5, 2-((4-(Methylthio)-m-tolyloxy)methyl)-2-imidazoline]", "values": [
      {"measurement": "Δ P50 (oxygen tension at 50% saturation, difference control vs treated)", "setting": "Hb-S; 5 mM", "value": -11, "unit": "mm Hg"},
      {"measurement": "Δ P50 (oxygen tension at 50% saturation, difference control vs treated)", "setting": "Hb-S; 10 mM", "value": -14.7, "unit": "mm Hg"}
    ]},
    {"smiles": "Cc1ccc(S(=O)(=O)O)cc1.N#Cc1cccc(OCC2=NCCN2)c1", "note": "[Example 4, 2-((3-cyanophenoxy)methyl)-2-imidazoline p-toluenesulfonate]", "values": [
      {"measurement": "inhibition at 12500 µM", "setting": "[1]; Homo sapiens, Erythrocyte, deoxygenation, 0.0125 M, vs control, read-out: Percent Change, Sickle (sickled cells)", "value": 33, "unit": "%"},
      {"measurement": "inhibition at 25000 µM", "setting": "[1]; Homo sapiens, Erythrocyte, deoxygenation, 0.025 M, vs control, read-out: Percent Change, Sickle (sickled cells)", "value": 69, "unit": "%"},
      {"measurement": "inhibition at 50000 µM", "setting": "[1]; Homo sapiens, Erythrocyte, deoxygenation, 0.05 M, vs control, read-out: Percent Change, Sickle (sickled cells)", "value": 77, "unit": "%"},
      {"measurement": "interference with deoxygenation induced sickling", "setting": "[1]; Table 1", "value": "interfered with deoxygenation induced sickling"},
      {"measurement": "Lysis", "setting": "[1]; deoxygenation, 0.0125 M", "value": "-"},
      {"measurement": "Percent Change, Atyp. (atypical cells)", "setting": "[1]; [3]", "value": -65, "unit": "%"},
      {"measurement": "Percent Change, Typ. (normal cells)", "setting": "[1]; [3]", "value": "+201%"},
      {"measurement": "Lysis", "setting": "[1]; deoxygenation, 0.025 M", "value": "-"},
      {"measurement": "Percent Change, Atyp. (atypical cells)", "setting": "[1]; [4]", "value": -78, "unit": "%"},
      {"measurement": "Percent Change, Typ. (normal cells)", "setting": "[1]; [4]", "value": "+316%"},
      {"measurement": "Lysis", "setting": "[1]; deoxygenation, 0.05 M", "value": "-"},
      {"measurement": "cell lysis (in words)", "setting": "[1]; deoxygenation, 0.05 M", "value": "without the appearance of cell lysis"},
      {"measurement": "Percent Change, Atyp. (atypical cells)", "setting": "[1]; [5]", "value": -74, "unit": "%"},
      {"measurement": "Percent Change, Typ. (normal cells)", "setting": "[1]; [5]", "value": "+407%"},
      {"measurement": "solubility of deoxyhemoglobin S (in words)", "setting": "[2]", "value": "increased"},
      {"measurement": "Δ P50 (oxygen tension at 50% saturation, difference control vs treated)", "setting": "Hb-S; 5 mM", "value": -1, "unit": "mm Hg"},
      {"measurement": "Δ P50 (oxygen tension at 50% saturation, difference control vs treated)", "setting": "Hb-S; 10 mM", "value": -13.7, "unit": "mm Hg"}
    ]}
  ]
}
